Source: ChEMBL document CHEMBL3627674, “Discovery of wrightiadione as a novel template for the TrkA kinase inhibitors” (Bioorg Med Chem Lett, 2015)

Columns and labels:
[1] = target: Platelet-derived growth factor receptor beta (Homo sapiens) (UniProt P09619); experiment: Inhibition of PDGFRB (unknown origin) assessed as remaining activity at 10 uM by high-throughput assay relative to control
[2] = target: ALK tyrosine kinase receptor (Homo sapiens) (UniProt Q9UM73); experiment: Inhibition of ALK (unknown origin) assessed as remaining activity at 10 uM by high-throughput assay relative to control
[3] = target: Serine/threonine-protein kinase pim-1 (Homo sapiens) (UniProt P11309); experiment: Inhibition of PIM1 (unknown origin) assessed as remaining activity at 10 uM by high-throughput assay relative to control
[4] = target: Receptor tyrosine-protein kinase erbB-4 (Homo sapiens) (UniProt Q15303); experiment: Inhibition of ERBB4 (unknown origin) assessed as remaining activity at 10 uM by high-throughput assay relative to control
[5] = target: Inhibitor of nuclear factor kappa-B kinase subunit beta (Homo sapiens) (UniProt O14920); experiment: Inhibition of IKK-beta (unknown origin) assessed as remaining activity at 10 uM by high-throughput assay relative to control
[6] = target: Cyclin-dependent kinase 7 (Homo sapiens) (UniProt P50613); experiment: Inhibition of CDK7 (unknown origin) assessed as remaining activity at 10 uM by high-throughput assay relative to control
[7] = target: Focal adhesion kinase 1 (Homo sapiens) (UniProt Q05397); experiment: Inhibition of FAK (unknown origin) assessed as remaining activity at 10 uM by high-throughput assay relative to control
[8] = target: NUAK family SNF1-like kinase 2 (Homo sapiens) (UniProt Q9H093); experiment: Inhibition of SNARK (unknown origin) assessed as remaining activity at 10 uM by high-throughput assay relative to control
[9] = target: Cyclin-dependent kinase 9 (Homo sapiens) (UniProt P50750); experiment: Inhibition of CDK9 (unknown origin) assessed as remaining activity at 10 uM by high-throughput assay relative to control
[10] = target: Phosphatidylinositol 4-phosphate 3-kinase C2 domain-containing subunit beta (Homo sapiens) (UniProt O00750); experiment: Inhibition of PIK3C2B (unknown origin) assessed as remaining activity at 10 uM by high-throughput assay relative to control
[11] = target: Mitogen-activated protein kinase 8 (Homo sapiens) (UniProt P45983); experiment: Inhibition of JNK1 (unknown origin) assessed as remaining activity at 10 uM by high-throughput assay relative to control
[12] = target: Epidermal growth factor receptor (Homo sapiens) (UniProt P00533); experiment: Inhibition of EGFR (unknown origin) assessed as remaining activity at 10 uM by high-throughput assay relative to control
[13] = target: Hepatocyte growth factor receptor (Homo sapiens) (UniProt P08581); experiment: Inhibition of MET (unknown origin) assessed as remaining activity at 10 uM by high-throughput assay relative to control
[14] = target: Fibroblast growth factor receptor 2 (Homo sapiens) (UniProt P21802); experiment: Inhibition of FGFR2 (unknown origin) assessed as remaining activity at 10 uM by high-throughput assay relative to control
[15] = target: Mitogen-activated protein kinase 9 (Homo sapiens) (UniProt P45984); experiment: Inhibition of JNK2 (unknown origin) assessed as remaining activity at 10 uM by high-throughput assay relative to control
[16] = target: MAP kinase-interacting serine/threonine-protein kinase 1 (Homo sapiens) (UniProt Q9BUB5); experiment: Inhibition of MKNK1 (unknown origin) assessed as remaining activity at 10 uM by high-throughput assay relative to control
[17] = target: Fibroblast growth factor receptor 3 (Homo sapiens) (UniProt P22607); experiment: Inhibition of FGFR3 (unknown origin) assessed as remaining activity at 10 uM by high-throughput assay relative to control
[18] = target: Serine/threonine-protein kinase ULK2 (Homo sapiens) (UniProt Q8IYT8); experiment: Inhibition of ULK2 (unknown origin) assessed as remaining activity at 10 uM by high-throughput assay relative to control
[19] = target: Serine/threonine-protein kinase B-raf (Homo sapiens) (UniProt P15056); experiment: Inhibition of BRAF (unknown origin) assessed as remaining activity at 10 uM by high-throughput assay relative to control
[20] = system: Mast/stem cell growth factor receptor Kit (Homo sapiens), P10721 [V559D,T670I]; experiment: Inhibition of KIT V559D/T670I double mutant (unknown origin) assessed as remaining activity at 10 uM by high-throughput assay relative to control
[21] = target: Ephrin type-A receptor 2 (Homo sapiens) (UniProt P29317); experiment: Inhibition of EPHA2 (unknown origin) assessed as remaining activity at 10 uM by high-throughput assay relative to control
[22] = system: Serine/threonine-protein kinase B-raf (Homo sapiens), P15056 [V600E]; experiment: Inhibition of BRAF V600E mutant (unknown origin) assessed as remaining activity at 10 uM by high-throughput assay relative to control
[23] = target: Serine/threonine-protein kinase PLK4 (Homo sapiens) (UniProt O00444); experiment: Inhibition of PLK4 (unknown origin) assessed as remaining activity at 10 uM by high-throughput assay relative to control
[24] = target: Serine/threonine-protein kinase PLK1 (Homo sapiens) (UniProt P53350); experiment: Inhibition of PLK1 (unknown origin) assessed as remaining activity at 10 uM by high-throughput assay relative to control
[25] = target: Serine/threonine-protein kinase 32C (Homo sapiens) (UniProt Q86UX6); experiment: Inhibition of YANK3 (unknown origin) assessed as remaining activity at 10 uM by high-throughput assay relative to control

Chain of Serine/threonine-protein kinase B-raf (Homo sapiens) (P15056 whole entry): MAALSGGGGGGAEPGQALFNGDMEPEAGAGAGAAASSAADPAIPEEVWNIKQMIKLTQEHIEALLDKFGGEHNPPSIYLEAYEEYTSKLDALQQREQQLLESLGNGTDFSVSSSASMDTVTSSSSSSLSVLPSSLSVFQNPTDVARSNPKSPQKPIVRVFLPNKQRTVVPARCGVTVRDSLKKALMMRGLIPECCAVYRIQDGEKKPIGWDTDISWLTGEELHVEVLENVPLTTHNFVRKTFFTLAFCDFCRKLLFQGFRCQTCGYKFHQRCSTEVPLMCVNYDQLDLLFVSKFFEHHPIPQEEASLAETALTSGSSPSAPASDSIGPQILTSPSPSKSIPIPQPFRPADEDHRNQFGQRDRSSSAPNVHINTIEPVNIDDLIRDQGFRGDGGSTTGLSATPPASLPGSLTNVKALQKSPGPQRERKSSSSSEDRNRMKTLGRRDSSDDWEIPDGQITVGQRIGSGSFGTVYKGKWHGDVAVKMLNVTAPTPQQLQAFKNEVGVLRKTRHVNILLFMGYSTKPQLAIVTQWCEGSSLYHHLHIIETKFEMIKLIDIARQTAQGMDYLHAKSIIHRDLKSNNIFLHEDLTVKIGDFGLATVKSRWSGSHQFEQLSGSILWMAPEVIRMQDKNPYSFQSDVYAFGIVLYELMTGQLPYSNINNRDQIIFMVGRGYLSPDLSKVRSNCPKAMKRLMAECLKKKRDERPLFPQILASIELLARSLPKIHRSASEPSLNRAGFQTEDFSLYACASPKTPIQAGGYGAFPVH
Chain of MAP kinase-interacting serine/threonine-protein kinase 1 (Homo sapiens) (Q9BUB5 whole entry, looked up): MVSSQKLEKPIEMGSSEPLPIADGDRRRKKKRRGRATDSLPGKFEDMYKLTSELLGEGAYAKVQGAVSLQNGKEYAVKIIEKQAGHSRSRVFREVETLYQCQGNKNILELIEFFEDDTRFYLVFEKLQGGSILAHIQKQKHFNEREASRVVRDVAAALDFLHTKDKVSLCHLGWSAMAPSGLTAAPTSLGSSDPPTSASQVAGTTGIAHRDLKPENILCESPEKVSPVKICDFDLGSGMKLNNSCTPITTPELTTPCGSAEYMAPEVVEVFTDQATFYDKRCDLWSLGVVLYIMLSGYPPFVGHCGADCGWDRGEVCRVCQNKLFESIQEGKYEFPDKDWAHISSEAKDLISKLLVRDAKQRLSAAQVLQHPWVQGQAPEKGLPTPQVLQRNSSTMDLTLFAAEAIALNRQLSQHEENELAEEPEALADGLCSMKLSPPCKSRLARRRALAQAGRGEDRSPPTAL
Chain of Epidermal growth factor receptor (Homo sapiens) (P00533 whole entry): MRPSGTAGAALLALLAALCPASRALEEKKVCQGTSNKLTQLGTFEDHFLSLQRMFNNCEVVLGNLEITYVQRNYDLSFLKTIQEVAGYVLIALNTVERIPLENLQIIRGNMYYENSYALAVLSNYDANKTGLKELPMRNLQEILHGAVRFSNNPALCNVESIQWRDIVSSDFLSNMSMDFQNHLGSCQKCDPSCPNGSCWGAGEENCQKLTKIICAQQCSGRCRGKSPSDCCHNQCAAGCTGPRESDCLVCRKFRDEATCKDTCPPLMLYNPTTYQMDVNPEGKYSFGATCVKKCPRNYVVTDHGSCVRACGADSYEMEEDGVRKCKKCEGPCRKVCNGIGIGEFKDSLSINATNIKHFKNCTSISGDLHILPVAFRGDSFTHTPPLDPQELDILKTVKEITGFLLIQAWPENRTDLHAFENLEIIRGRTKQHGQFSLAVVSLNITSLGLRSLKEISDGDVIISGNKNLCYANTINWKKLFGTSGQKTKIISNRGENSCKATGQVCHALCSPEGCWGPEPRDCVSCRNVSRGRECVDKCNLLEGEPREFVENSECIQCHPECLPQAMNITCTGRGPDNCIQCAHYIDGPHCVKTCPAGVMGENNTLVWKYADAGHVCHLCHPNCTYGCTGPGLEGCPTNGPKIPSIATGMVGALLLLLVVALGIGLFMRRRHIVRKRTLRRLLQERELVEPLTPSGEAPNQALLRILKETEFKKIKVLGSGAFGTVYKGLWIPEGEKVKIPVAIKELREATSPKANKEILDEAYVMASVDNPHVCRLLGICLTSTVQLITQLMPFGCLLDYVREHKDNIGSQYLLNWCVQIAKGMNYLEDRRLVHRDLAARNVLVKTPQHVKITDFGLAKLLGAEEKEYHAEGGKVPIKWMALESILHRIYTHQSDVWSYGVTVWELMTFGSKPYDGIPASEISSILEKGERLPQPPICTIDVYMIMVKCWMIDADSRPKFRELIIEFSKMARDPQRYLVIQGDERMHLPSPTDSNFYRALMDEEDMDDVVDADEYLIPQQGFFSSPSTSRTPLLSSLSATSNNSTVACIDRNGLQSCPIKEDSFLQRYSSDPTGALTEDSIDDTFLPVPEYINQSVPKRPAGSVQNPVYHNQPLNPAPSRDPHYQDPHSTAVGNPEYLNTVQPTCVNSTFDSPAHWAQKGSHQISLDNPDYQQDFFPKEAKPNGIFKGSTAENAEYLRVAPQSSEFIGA
Chain of Serine/threonine-protein kinase pim-1 (Homo sapiens) (P11309 whole entry, looked up): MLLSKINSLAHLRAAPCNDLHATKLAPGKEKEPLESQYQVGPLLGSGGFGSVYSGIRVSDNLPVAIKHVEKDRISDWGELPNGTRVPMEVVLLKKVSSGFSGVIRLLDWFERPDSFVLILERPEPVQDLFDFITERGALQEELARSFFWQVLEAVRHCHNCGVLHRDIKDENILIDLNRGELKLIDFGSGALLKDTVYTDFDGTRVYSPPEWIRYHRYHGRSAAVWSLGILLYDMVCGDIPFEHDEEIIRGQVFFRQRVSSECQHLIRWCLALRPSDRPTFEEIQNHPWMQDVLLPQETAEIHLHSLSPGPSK
Chain of Platelet-derived growth factor receptor beta (Homo sapiens) (P09619 whole entry): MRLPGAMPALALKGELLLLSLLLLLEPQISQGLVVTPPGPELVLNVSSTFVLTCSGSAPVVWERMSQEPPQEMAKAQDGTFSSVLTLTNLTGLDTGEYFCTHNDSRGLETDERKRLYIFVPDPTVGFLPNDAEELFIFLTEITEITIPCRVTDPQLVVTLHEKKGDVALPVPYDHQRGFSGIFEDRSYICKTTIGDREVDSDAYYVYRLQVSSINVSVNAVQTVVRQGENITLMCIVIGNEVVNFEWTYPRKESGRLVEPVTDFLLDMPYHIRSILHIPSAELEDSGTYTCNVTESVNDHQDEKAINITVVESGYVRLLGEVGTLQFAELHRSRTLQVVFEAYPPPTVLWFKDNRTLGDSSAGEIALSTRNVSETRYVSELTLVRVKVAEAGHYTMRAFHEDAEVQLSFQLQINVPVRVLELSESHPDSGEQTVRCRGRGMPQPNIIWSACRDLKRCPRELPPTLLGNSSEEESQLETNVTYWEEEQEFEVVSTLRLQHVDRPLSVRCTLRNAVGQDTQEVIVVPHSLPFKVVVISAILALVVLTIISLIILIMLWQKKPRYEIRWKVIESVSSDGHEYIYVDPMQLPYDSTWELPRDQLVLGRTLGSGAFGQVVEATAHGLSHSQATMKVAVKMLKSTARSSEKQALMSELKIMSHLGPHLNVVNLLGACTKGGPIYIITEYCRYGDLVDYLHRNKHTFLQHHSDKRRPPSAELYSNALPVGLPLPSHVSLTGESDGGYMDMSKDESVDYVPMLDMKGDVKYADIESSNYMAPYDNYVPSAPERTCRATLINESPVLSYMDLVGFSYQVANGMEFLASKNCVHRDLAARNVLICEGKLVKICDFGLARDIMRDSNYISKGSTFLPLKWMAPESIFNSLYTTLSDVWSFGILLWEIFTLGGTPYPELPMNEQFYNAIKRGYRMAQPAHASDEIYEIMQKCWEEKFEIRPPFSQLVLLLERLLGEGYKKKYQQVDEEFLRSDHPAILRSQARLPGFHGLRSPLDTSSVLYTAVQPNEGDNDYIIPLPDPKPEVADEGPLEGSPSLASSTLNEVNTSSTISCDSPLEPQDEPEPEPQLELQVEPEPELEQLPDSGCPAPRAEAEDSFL
Chain of Fibroblast growth factor receptor 2 (Homo sapiens) (P21802 22-821 limits assumed): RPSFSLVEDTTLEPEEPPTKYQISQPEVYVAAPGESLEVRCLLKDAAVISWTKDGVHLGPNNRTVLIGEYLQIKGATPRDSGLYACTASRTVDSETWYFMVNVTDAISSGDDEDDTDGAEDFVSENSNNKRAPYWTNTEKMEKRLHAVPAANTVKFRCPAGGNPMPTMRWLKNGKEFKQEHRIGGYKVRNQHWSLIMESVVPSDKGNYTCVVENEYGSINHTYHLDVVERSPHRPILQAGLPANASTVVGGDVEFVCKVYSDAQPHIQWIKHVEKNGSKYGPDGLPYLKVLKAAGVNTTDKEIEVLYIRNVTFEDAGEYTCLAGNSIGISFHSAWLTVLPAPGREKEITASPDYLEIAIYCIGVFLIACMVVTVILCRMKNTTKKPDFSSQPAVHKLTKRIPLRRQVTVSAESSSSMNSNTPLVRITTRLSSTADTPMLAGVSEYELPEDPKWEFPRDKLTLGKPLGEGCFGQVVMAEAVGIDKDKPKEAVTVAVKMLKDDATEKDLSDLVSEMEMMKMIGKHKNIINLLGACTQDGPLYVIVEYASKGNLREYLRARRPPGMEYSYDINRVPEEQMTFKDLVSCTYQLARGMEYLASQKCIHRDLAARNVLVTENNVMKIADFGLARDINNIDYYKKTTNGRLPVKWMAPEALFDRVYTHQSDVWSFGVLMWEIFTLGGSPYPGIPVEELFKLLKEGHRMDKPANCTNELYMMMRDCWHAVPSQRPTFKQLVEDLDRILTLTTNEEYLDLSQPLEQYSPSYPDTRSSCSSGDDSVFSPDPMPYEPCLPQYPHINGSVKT
Chain of Cyclin-dependent kinase 7 (Homo sapiens) (P50613 whole entry): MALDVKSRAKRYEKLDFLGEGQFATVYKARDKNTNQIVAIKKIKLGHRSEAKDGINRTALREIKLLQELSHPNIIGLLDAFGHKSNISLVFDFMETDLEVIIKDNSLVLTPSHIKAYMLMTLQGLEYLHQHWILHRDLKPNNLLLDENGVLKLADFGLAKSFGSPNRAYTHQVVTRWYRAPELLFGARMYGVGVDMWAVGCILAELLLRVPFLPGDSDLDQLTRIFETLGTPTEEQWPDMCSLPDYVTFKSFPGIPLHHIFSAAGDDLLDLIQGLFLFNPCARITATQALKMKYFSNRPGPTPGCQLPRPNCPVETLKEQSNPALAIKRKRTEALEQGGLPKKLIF
Chain of Serine/threonine-protein kinase B-raf (Homo sapiens), P15056 [V600E] (P15056 whole entry V600E): as the sequence (P15056 whole entry) above, with V600E counted along it

## O=C1c2ccccc2-c2c1oc1ccccc1c2=O
[1]
  Activity: 45%
[2]
  Activity: 48%
[3]
  Activity: 93%
[4]
  Activity: 100%
[5]
  Activity: 73%
[6]
  Activity: 59%
[7]
  Activity: 90%
[8]
  Activity: 70%
[9]
  Activity: 71%
[10]
  Activity: 99%
[11]
  Activity: 34%
[12]
  Activity: 93%
[13]
  Activity: 64%
[14]
  Activity: 56%
[15]
  Activity: 49%
[16]
  Activity: 99%
[17]
  Activity: 54%
[18]
  Activity: 59%
[19]
  Activity: 66%
[20]
  Activity: 65%
[21]
  Activity: 80%
[22]
  Activity: 72%
[23]
  Activity: 80%
[24]
  Activity: 38%
[25]
  Activity: 78%
